According to patent US11891397B1, “Pyrido[4′,3′:4,5]pyrrolo[3,2-c][1,7]naphthyridin-10-one compounds as CK2 inhibitors” (KING FAISAL UNIVERSITY, priority 2023, dated 2024):

Assays:
[1] = system: PC3 (prostate); test: In vitro cytotoxic activity MTT assay, PC3; type: cell-based; settings: Homo sapiens, 96 hours exposure, read-out: IC50, 50% inhibition of cell proliferation
Description: (§1) Compounds 1-16 were screened for their in vitro cytotoxic activity utilizing a 3-(4,5-dimethyl-thiazol-2-yl)-2,5-diphenyltetrazolium bromide (MTT) assay against selected cancer human cell lines consisting of PC3 (prostate), HCT116 (colon), A375 (melanoma), H1299 (lung), MIAPaCa-2 (pancreas), HL60 (leukemia), MCF7 (breast), MDA-MB-231 (breast) (T. Mosmann, J. Immunol. Meth., 1983, 65, 55-63). The cells were cultured at 37° C. in RMPI1640 medium supplemented with 10% fetal bovine serum, 50 IU/mL penicillin, and 50 μg/mL streptomycin in a 5% CO2 incubator. All cells were sub-cultured 3 times/week by trypsinisation. Viable cells were seeded and allowed to adhere for 12 h before a test drug was added in 96-well plates at an initial density of 1.0×10^5 cells/mL. Tumour cell lines were separately exposed to various concentrations of the tested compounds followed by incubation at a temperature of 37° C. during 96 h inside a medium of fresh RMPI 1640. Cells were subsequently incubated at 37° C. using MTT at 0.5 mg/mL during 4 h. After removal of supernatant, formazan crystals were dissolved in isopropanol and the optical density was measured at 570 nm. CX-4945 was used as a positive control.

[2] = system: HCT116 (colon); test: In vitro cytotoxic activity MTT assay, HCT116; type: cell-based; settings: Homo sapiens, HCT-116, 96 hours exposure, read-out: IC50, 50% inhibition of cell proliferation
Description: as §1

[3] = system: A375 (melanoma); test: In vitro cytotoxic activity MTT assay, A375; type: cell-based; settings: Homo sapiens, A-375, 96 hours exposure, read-out: IC50, 50% inhibition of cell proliferation
Description: as §1

[4] = system: H1299 (lung); test: In vitro cytotoxic activity MTT assay, H1299; type: cell-based; settings: Homo sapiens, NCI-H1299, 96 hours exposure, read-out: IC50, 50% inhibition of cell proliferation
Description: as §1

[5] = system: MIAPaCa-2 (pancreas); test: In vitro cytotoxic activity MTT assay, MIAPaCa-2; type: cell-based; settings: Homo sapiens, MIA PaCa-2, 96 hours exposure, read-out: IC50, 50% inhibition of cell proliferation
Description: as §1

[6] = system: HL60 (leukemia); test: In vitro cytotoxic activity MTT assay, HL60; type: cell-based; settings: Homo sapiens, HL-60, 96 hours exposure, read-out: IC50, 50% inhibition of cell proliferation
Description: as §1

[7] = system: MCF7 (breast); test: In vitro cytotoxic activity MTT assay, MCF7; type: cell-based; settings: Homo sapiens, 96 hours exposure, read-out: IC50, 50% inhibition of cell proliferation
Description: as §1

[8] = system: MDA-MB-231 (breast); test: In vitro cytotoxic activity MTT assay, MDA-MB-231; type: cell-based; settings: Homo sapiens, 96 hours exposure, read-out: IC50, 50% inhibition of cell proliferation
Description: as §1

[9] = molecular target: T1, recombinant human CK2 (Homo sapiens, UniProt P68400); test: CK2 Kinase Assay (33P-ATP filter plate); type: biochemical; settings: final ATP concentration 15 μM, 10 min at 30° C; read-out: protein kinase CK2 IC50
T1 construct: purchased Millipore
T1 sequence (P68400 whole entry): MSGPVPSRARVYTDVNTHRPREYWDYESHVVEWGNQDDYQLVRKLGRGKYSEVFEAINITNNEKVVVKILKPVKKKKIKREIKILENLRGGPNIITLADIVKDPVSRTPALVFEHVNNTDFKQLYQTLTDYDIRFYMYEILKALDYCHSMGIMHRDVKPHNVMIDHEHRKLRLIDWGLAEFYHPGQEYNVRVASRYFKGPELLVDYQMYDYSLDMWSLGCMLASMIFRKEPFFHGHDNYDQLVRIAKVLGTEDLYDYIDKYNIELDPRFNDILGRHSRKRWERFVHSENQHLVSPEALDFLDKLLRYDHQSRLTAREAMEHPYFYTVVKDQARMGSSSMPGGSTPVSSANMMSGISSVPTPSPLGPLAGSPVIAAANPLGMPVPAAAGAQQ
T1 sequence (P67870 whole entry partner): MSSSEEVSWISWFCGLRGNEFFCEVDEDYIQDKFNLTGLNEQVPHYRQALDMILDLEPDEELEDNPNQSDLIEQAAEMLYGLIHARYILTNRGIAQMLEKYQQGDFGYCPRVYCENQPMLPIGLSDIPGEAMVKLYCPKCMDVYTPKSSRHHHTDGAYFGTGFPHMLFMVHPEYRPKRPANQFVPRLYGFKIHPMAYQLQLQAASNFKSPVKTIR
Description: CK2 Kinase Assay was conducted using the protocol as described in Pierre F. et al; J. Med. Chem. 2011, 54, 635-654. The tested compounds in aqueous solution were added at a volume of 10 μL to a reaction mixture comprising 10 μL of assay dilution buffer (ADB; 20 mM MOPS, pH 7.2, 25 mM β-glycerol phosphate, 5 mM EGTA, 1 mM sodium orthovanadate, and 1 mM dithiothreitol), 10 μL of substrate peptide (RRRDDDSDDD, dissolved in ADB at a concentration of 1 mM), 10 μL of recombinant human CK2 (RROP-holoenzyme, 25 ng dissolved in ADB; Millipore). Reactions were initiated by the addition of 10 μL of ATP solution (90% 75 mMMgCl2, 75 μM ATP (final ATP concentration:15 μM) dissolved in ADB; 10% [γ-33P] ATP (stock 1 mCi/100 μL; 3000 Ci/mmol (Perkin-Elmer) and maintained for 10 min at 30° C. The reactions were quenched with 100 μL of 0.75% phosphoric acid and then transferred to and filtered through a phosphor cellulose filter plate (Millipore). After washing each well five times with 0.75% phosphoric acid, the plate was dried under vacuum for 5 min and, following the addition of 15 μL of scintillation fluid to each well, the residual radioactivity was measured using a Wallac luminescence counter. The IC50 values were derived from eight concentrations of test inhibitors.

IC50 [9]: 45 nM
SMILES: O=c1[nH]ccc2c1[nH]c1c3ccncc3nc(Nc3cccc(Cl)c3)c21 [Compound 1, 6-((3-chlorophenyl)amino)-9,11-dihydro-10H-pyrido[4′,3′:4,5]pyrrolo[3,2-c][1,7]naphthyridin-10-one]
IC50 [1]: 1800 nM | IC50 [2]: 2100 nM | IC50 [3]: 3900 nM | IC50 [4]: 2700 nM | IC50 [5]: 1200 nM | IC50 [6]: 4600 nM | IC50 [7]: 5400 nM | IC50 [8]: 4000 nM
